PubChem BioAssay AID2060335 (Molecular Pharmacology Branch, DTP, NCI, 2025)
pIC50: −log10 of the molar value.

Tested on: DU-145 multicell spheroids with HUVEC/MSC, viability
Test: Anticancer human tumor DU-145 cell line growth inhibition [IpAb];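 note: spheroids exposed to agents for seven days before measurement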;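 for viability, T/C: percent of DMSO vehicle control viability so 100% = untreated level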
Settings: for pIC50: curve of first compound; for viability, T/C: stronger effect = lower value
Summary of the method: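 Spheroids of 60% malignant cells, 25% HUVEC and 15% MSC were exposed to targeted agents combined with ipatasertib or abemaciclib. Doses started at or near clinical Cmax (10 microM when unknown) and fell in half-log steps.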

[1] = second compound 0.01 µM, first compound 0.0316 µM
[2] = second compound 0.01 µM, first compound 0.1 µM
[3] = second compound 0.01 µM, first compound 0.316 µM
[4] = second compound 0.01 µM, first compound 1 µM
[5] = second compound 0.01 µM, first compound 3.16 µM
[6] = second compound 0.01 µM, first compound 10 µM
[7] = second compound 0.0316 µM, first compound 0.0316 µM
[8] = second compound 0.0316 µM, first compound 0.1 µM
[9] = second compound 0.0316 µM, first compound 0.316 µM
[10] = second compound 0.0316 µM, first compound 1 µM
[11] = second compound 0.0316 µM, first compound 3.16 µM
[12] = second compound 0.0316 µM, first compound 10 µM
[13] = second compound 0.1 µM, first compound 0.0316 µM
[14] = second compound 0.1 µM, first compound 0.1 µM
[15] = second compound 0.1 µM, first compound 0.316 µM
[16] = second compound 0.1 µM, first compound 1 µM
[17] = second compound 0.1 µM, first compound 3.16 µM
[18] = second compound 0.1 µM, first compound 10 µM
[19] = second compound 0.316 µM, first compound 0.0316 µM
[20] = second compound 0.316 µM, first compound 0.1 µM
[21] = second compound 0.316 µM, first compound 0.316 µM
[22] = second compound 0.316 µM, first compound 1 µM
[23] = second compound 0.316 µM, first compound 3.16 µM
[24] = second compound 0.316 µM, first compound 10 µM
[25] = second compound 1 µM, first compound 0.0316 µM
[26] = second compound 1 µM, first compound 0.1 µM
[27] = second compound 1 µM, first compound 0.316 µM
[28] = second compound 1 µM, first compound 1 µM
[29] = second compound 1 µM, first compound 3.16 µM
[30] = second compound 1 µM, first compound 10 µM

Row | Structure (SMILES) | pIC50 (second compound 0.01 µM) | pIC50 (second compound 0.0316 µM) | pIC50 (second compound 0.1 µM) | pIC50 (second compound 0.316 µM) | pIC50 (second compound 1 µM) | viability, T/C [1] | viability, T/C [2] | viability, T/C [3] | viability, T/C [4] | viability, T/C [5] | viability, T/C [6] | viability, T/C [7] | viability, T/C [8] | viability, T/C [9] | viability, T/C [13] | viability, T/C [14] | viability, T/C [19] | viability, T/C [20] | viability, T/C [25] | viability, T/C [26] | other results
1 | C=CC(=O)N1CCN(c2nc(=O)n(-c3c(C)ccnc3C(C)C)c3nc(-c4c(O)cccc4F)c(F)cc23)C(C)C1 (stereo not given) + CCN1CCN(Cc2ccc(Nc3ncc(F)c(-c4cc(F)c5nc(C)n(C(C)C)c5c4)n3)nc2)CC1 | 5.10 | 5.12 | 5.08 | 5.02 | 5.22 | 94.6% | 104% | 111% | 104% | 86.1% | 40.6% | 91.2% | 95% | 98.7% | 82.8% | 81% | 78.8% | 78.3% | 66.1% | 64.4% | viability, T/C [10]: 96.5%; viability, T/C [11]: 81.5%; viability, T/C [12]: 39.4%; viability, T/C [15]: 91.5%; viability, T/C [16]: 93.3%; viability, T/C [17]: 78.4%; viability, T/C [18]: 44.8%; viability, T/C [21]: 82.4%; viability, T/C [22]: 85.8%; viability, T/C [23]: 77.3%; viability, T/C [24]: 49%; viability, T/C [27]: 65.9%; viability, T/C [28]: 70.5%; viability, T/C [29]: 67.5%; viability, T/C [30]: 37.3%
2 | Cn1ncc(Cl)c1-c1cc(C(=O)NC(CN)Cc2cccc(F)c2)sc1Cl (stereo not given) + CCN1CCN(Cc2ccc(Nc3ncc(F)c(-c4cc(F)c5nc(C)n(C(C)C)c5c4)n3)nc2)CC1 | 6.87 | 7.01 | 7.10 | 7.10 | 6.72 | 84.7% | 56.3% | 30.6% | 22.5% | 13.7% | 1.16% | 74.1% | 48.9% | 29.6% | 64.4% | 47.8% | 60% | 48.5% | 60.3% | 52% | viability, T/C [10]: 19.6%; viability, T/C [11]: 14%; viability, T/C [12]: 0.22%; viability, T/C [15]: 29.4%; viability, T/C [16]: 19%; viability, T/C [17]: 13.4%; viability, T/C [18]: 0.82%; viability, T/C [21]: 32.8%; viability, T/C [22]: 23.4%; viability, T/C [23]: 16.4%; viability, T/C [24]: 0.85%; viability, T/C [27]: 50.2%; viability, T/C [28]: 30.9%; viability, T/C [29]: 25.8%; viability, T/C [30]: 0.53%
3 | Cn1ncnc1[C@H]1c2n[nH]c(=O)c3cc(F)cc(c23)N[C@@H]1c1ccc(F)cc1 + CCN1CCN(Cc2ccc(Nc3ncc(F)c(-c4cc(F)c5nc(C)n(C(C)C)c5c4)n3)nc2)CC1 | < 7.00 | < 7.00 | < 7.00 | < 7.00 | < 7.00 | 88.5% | 81.6% | – | – | – | – | 84.1% | 77.4% | – | 82.1% | 76% | 66.7% | 64.7% | 63.7% | 61.2% | viability, T/C (second compound 0.01 µM, first compound 0.000316 µM): 99.7%; viability, T/C (second compound 0.01 µM, first compound 0.001 µM): 102%; viability, T/C (second compound 0.01 µM, first compound 0.00316 µM): 96.8%; viability, T/C (second compound 0.01 µM, first compound 0.01 µM): 89%; viability, T/C (second compound 0.0316 µM, first compound 0.000316 µM): 94.2%; viability, T/C (second compound 0.0316 µM, first compound 0.001 µM): 95.7%; viability, T/C (second compound 0.0316 µM, first compound 0.00316 µM): 84.5%; viability, T/C (second compound 0.0316 µM, first compound 0.01 µM): 79.1%; viability, T/C (second compound 0.1 µM, first compound 0.000316 µM): 90%; viability, T/C (second compound 0.1 µM, first compound 0.001 µM): 84.4%; viability, T/C (second compound 0.1 µM, first compound 0.00316 µM): 78.3%; viability, T/C (second compound 0.1 µM, first compound 0.01 µM): 73.4%; viability, T/C (second compound 0.316 µM, first compound 0.000316 µM): 81.9%; viability, T/C (second compound 0.316 µM, first compound 0.001 µM): 78%; viability, T/C (second compound 0.316 µM, first compound 0.00316 µM): 75.3%; viability, T/C (second compound 0.316 µM, first compound 0.01 µM): 73.3%; viability, T/C (second compound 1 µM, first compound 0.000316 µM): 67.9%; viability, T/C (second compound 1 µM, first compound 0.001 µM): 75.3%; viability, T/C (second compound 1 µM, first compound 0.00316 µM): 63.3%; viability, T/C (second compound 1 µM, first compound 0.01 µM): 65.8%
